The record followed here is ChEMBL document CHEMBL1131733, “Dual-acting agents with alpha1-adrenoceptor antagonistic and steroid 5alpha-reductase inhibitory activities. Synthesis and evaluation of arylpiperazine derivatives” (Bioorg Med Chem Lett, 1999).

Assay [1] in a line: Antagonistic Alpha-1 adrenergic receptor activity against phenylephrine-induced contraction of rabbit prostate. It is filed as functional, Oryctolagus cuniculus.
Assay [2] concerns the target T1, Steroid 5-alpha-reductase (Rattus norvegicus, UniProt P24008+P31214).
T1 sequence (P24008 whole entry): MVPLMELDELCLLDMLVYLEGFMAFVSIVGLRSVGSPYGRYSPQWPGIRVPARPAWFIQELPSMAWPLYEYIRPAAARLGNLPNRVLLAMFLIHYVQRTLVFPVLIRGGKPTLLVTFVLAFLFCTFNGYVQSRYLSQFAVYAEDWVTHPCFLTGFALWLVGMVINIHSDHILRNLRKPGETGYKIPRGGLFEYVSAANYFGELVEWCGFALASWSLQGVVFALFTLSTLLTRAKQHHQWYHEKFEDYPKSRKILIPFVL
T1 sequence (P31214 whole entry): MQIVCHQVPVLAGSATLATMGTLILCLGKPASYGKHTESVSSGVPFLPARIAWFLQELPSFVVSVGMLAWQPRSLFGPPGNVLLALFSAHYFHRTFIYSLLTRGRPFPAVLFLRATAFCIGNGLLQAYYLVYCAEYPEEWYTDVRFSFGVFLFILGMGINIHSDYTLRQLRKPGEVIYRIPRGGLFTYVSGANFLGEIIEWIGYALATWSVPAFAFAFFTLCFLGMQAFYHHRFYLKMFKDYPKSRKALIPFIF
Nature of the assay: Inhibition of Steroid 5-alpha-reductase from Dawley rat prostate. It is filed as tissue-based, Prostate gland.

The target in assay [3] is Steroid 5-alpha-reductase (Rattus norvegicus) (UniProt P24008+P31214). Nature of the assay: Inhibitory effect on prostatic Steroid 5-alpha-reductase, 2 hours after oral administration.
Assay [4] concerns Oryctolagus cuniculus. Nature of the assay: Dose required to inhibit increase in urethral pressure induced by phenylephrine in anesthetized rabbits by iv administration. It is filed as functional.

Molecules are shown by their SMILES.

A word on the pA2: it is a measure of antagonist potency on a negative log scale. As a reminder, the IC50 is the concentration at which inhibition is half-maximal. Higher therefore signals lower potency. As usually defined, the ED50 is the dose at which the effect has come halfway, by size or by number of responders. A higher ED50 goes with weaker potency.

Consider `COc1ccccc1N1CCN(CCCNc2cc(=O)n(C)c(=O)n2C)CC1`, for which the pA2 in assay [1] stood at 7.1. The compound `COc1ccccc1N1CCN(CCCOc2ccc(C(=O)Nc3ccccc3OCCCC(=O)O)cc2OCc2ccccc2)CC1` displayed an IC50 in assay [2] of 3500 nM. Besides, the pA2 in assay [1] is 7.2. For `COc1ccccc1N1CCN(CCCOc2cc(C(=O)c3cn(CCCC(=O)O)c4ccccc34)ccc2OCc2ccccc2)CC1` the same measures were 11 nM and 7.8. `COc1ccccc1N1CCN(CCC(Oc2ccc(C(=O)Nc3ccccc3OCCCC(=O)O)cc2)c2ccccc2)CC1` (centres undefined) came in with an IC50 in assay [2] of 920 nM. The pA2 in assay [1] is 7.6.

`COc1ccccc1N1CCN(CCCOc2cc(C(=O)c3cn(CCCC(=O)O)c4ccccc34)ccc2OCc2ccc(C)cc2)CC1` had an IC50 in assay [2] of 3.5 nM. In assay [1], this compound gave a pA2 of 7.7. On the same counts, the results for `COc1ccccc1N1CCN(CCCOc2cc(C(=O)Nc3ccccc3OCCCC(=O)O)ccc2OCc2ccccc2)CC1` are 490 nM and 8. On the same counts, the results for `CCc1ccc(COc2ccc(C(=O)c3cn(CCCC(=O)O)c4ccccc34)cc2OCCCN2CCN(c3ccccc3OC)CC2)cc1` are 4 nM and 6.6. For `COc1ccccc1N1CCN(CCCOc2ccc(C(=O)c3cn(CCCC(=O)O)c4ccccc34)cc2OCc2ccccc2)CC1` the same measures were 360 nM and 7. As for `COc1ccccc1N1CCN(CCC(Oc2ccc(C(=O)Nc3ccccc3OCCCC(=O)O)cc2)c2ccc(C)cc2)CC1` (centres undefined), the pA2 in assay [1] is recorded as 7.8. The compound `COc1ccccc1N1CCN(CCCCOc2cc(C(=O)c3cn(CCCC(=O)O)c4ccccc34)ccc2OCc2ccc(C)cc2)CC1` registered an IC50 in assay [2] of 1.5 nM. Moreover, in assay [1], the pA2 is on record as 6.7.

Regarding `CC(C)Cc1ccc(C(Nc2cccc(C(=O)c3cn(CCCC(=O)O)c4ccccc34)c2)c2ccc(CC(C)C)cc2)cc1`, the IC50 in assay [2] worked out at 4.2 nM.

For `CCOc1ccccc1N1CCN(CCCOc2cc(C(=O)c3cn(CCCC(=O)O)c4ccccc34)ccc2OCc2ccc(C)cc2)CC1`, the IC50 in assay [2] was 1.5 nM. In assay [1], this compound showed a pA2 of 7.5. Besides, in assay [3], the 50% effect level (ED50) was put at a dose of 7.9 mg/kg. This compound yielded a Dose in assay [4] of 0.3 mg/kg. Regarding `COc1ccccc1N1CCN(CCOc2cc(C(=O)c3cn(CCCC(=O)O)c4ccccc34)ccc2OCc2ccc(C)cc2)CC1`, in assay [2], the IC50 was found to be 4.8 nM. In assay [1], this compound registered a pA2 of 6.8. On the same counts, the results for `CCCOc1ccccc1N1CCN(CCCOc2cc(C(=O)c3cn(CCCC(=O)O)c4ccccc34)ccc2OCc2ccc(C)cc2)CC1` are 3 nM and 6.8. On the same counts, the results for `Cc1ccc(COc2ccc(C(=O)c3cn(CCCC(=O)O)c4ccccc34)cc2OCCCN2CCN(c3ccccc3OC(C)C)CC2)cc1` are 2.9 nM and 6.8.
